Reference: US20090197970A1, “CRYSTALLINE FORM OF CINACALCET” (Sandoz AG, priority 2006, published 2009)

Tests used:
Format in all cases: physicochemical
[1] = Flowability and handling of the crystals; conditions: crystals in the form of plates
[2] = Storage stability of the crystalline form; conditions: stored at ambient temperature
[3] = Temperature range of stability of the polymorph (DSC discussion); conditions: form only stable above this temperature
Procedure: DSC curves were recorded with a DSC 7 system (Perkin Elmer, Norwalk, Conn., USA) using the Pyris 2.0. software. Samples of approximately 2 mg were weighted into A1 pans with perforated cover. Dry nitrogen was used as purge gas. X-axis is the temperature in ° C., Y-axis gives dH/dT (endo up).
Form I is a crystalline form which melts at about 180° C. and is only stable at temperatures above 130° C.

C[C@@H](NCCCc1cccc(C(F)(F)F)c1)c1cccc2ccccc12.Cl
flowability characteristics [1]: favourable flowability characteristics

C[C@@H](NCCCc1cccc(C(F)(F)F)c1)c1cccc2ccccc12.Cl [Form III of Cinacalcet hydrochloride]
stable when stored [2]: ≥ 3 months

C[C@@H](NCCCc1cccc(C(F)(F)F)c1)c1cccc2ccccc12.Cl [Form I]
temperature at which the form is stable [3]: above 130 °C
